Measurements published in patent publication US20230364029A1, “POLYMORPHIC FORMS OF (R)-2-HYDROXY-2-METHYL-4-(2,4,5-TRIMETHYL-3,6-DIOXOCYCLOHEXA-1,4-DIENYL)BUTANAMIDE” (PTC THERAPEUTICS, INC., priority 2014, published 2023).
In brackets after ≈: the same amount, converted by molar mass.

How the values were obtained:
Format in all cases: physicochemical
[1] = 7 day elevated aqueous humidity studies; settings: for Visual Observations 1 day / Visual Observations 7 day / XRPD [Pattern] 7 day: > 95 %RH at Ambient; for XRPD [Pattern] 7 day: form after 7 days; for Stability to elevated humidity: Example 8, summary statement
Method: 7 day elevated aqueous humidity experiments were performed on all Patterns A, B, C, D, E and F at ambient conditions at > 95%RH (Table 17). Approximately 30 mg of each pattern was weighed into a 4 ml glass vial. The uncovered 4 ml vial was inserted into a 20 ml scintillation vial half filled with water and capped. Following 24 hours of equilibration, visual inspection was performed to check for changes in physical appearance, however no change was observed.

[2] = Aqueous solubility (HPLC); settings: water, ambient conditions, 24 hours of equilibration
Method: Aqueous solubility of Patterns A, B, C, E and F was performed using an Agilent HPLC system. Approximately 10-20 mg of each form was charged to a 2 mL glass vial loaded with a magnetic stir bar and added 2 mL of water. The samples were allowed to stir overnight at ambient conditions. Following 24 hours of equilibration the samples were centrifuged and decanted into HPLC vials. A calibration curve was generated based on Pattern A in MeOH at 0.05, 0.1, 0.5 and 1.0 mg/mL. Following injection of the standard curve, the samples were run as is.

[3] = Moisture sorption analysis; settings: for XRPD following moisture sorption analysis: after 0-95% RH cycles at 25° C.; for Water adsorbed: at 95 %RH; for Water adsorbed / Hygroscopicity / Hysteresis upon desorption: 25° C.; for Hygroscopicity: moisture sorption, 0-95% RH cycles; for Hysteresis upon desorption: moisture sorption-desorption
Method: (§1) Moisture sorption analysis of the starting material was performed by equilibrating the sample at 25° C. and 50% RH to simulate ambient lab conditions. Humidity then decreased to 0% RH, increased from 0 to 95% RH, reduced from 95 to 0% RH, increased from 0 to 95 %RH and then decreased from 95 to 50% RH. Each point represents the estimated asymptotic weight for each humidity or weight. […] No hysteresis was observed upon desorption (FIG. 14).
as §1, with “of Pattern E (from” for “of”, “300 mg scale lot)” for “starting material”, “Humidity was” for “Humidity”, “19).” for “14).”
Moisture sorption analysis of Pattern C (300 mg lot) was performed by equilibrating the sample at 25° C. and 50% RH to simulate ambient lab conditions. Humidity was then decreased to 0% RH, increased from 0 to 95% RH, reduced from 95 to 0% RH, increased from 0 to 95%RH and then decreased from 95 to 50% RH. Each point represents the estimated asymptotic weight for each humidity or weight. […] This increased the total water to about 6% which is the water content of mono-hydrate. However, upon reducing the relative humidity, the solid lost its water. Therefore this could be a channel hydrate. No hysteresis was observed upon desorption (FIG. 24).
as §1, with “Pattern B (300 mg lot)” for “the starting material”, “The major weight loss at the beginning” for “No hysteresis”, “due to loss of solvent.” for “observed upon desorption (FIG. 14).”
as §1, with “Pattern F (from Example 6)” for “the starting material”, “Humidity was” for “Humidity”, “The major weight loss at the beginning is due to loss of solvent.” for “No hysteresis was observed upon desorption (FIG. 14).”

| Compound | Visual Observations 1 day [1] | Visual Observations 7 day [1] | XRPD [Pattern] 7 day [1] | XRPD [Pattern] 7 day ([1]; listed as C) | Stability to elevated humidity [1] | Solubility (aqueous) [2] | XRPD following moisture sorption analysis [3] | Total water after adsorption ([3]; at 95%RH) | Water adsorbed [3] | Hygroscopicity [3] | Hysteresis upon desorption [3] | XRPD [Pattern] 7 day ([1]; listed as D) | XRPD [Pattern] 7 day ([1]; listed as B) | Hygroscopicity ([3]; listed as Form IV) | XRPD [Pattern] 7 day ([1]; listed as F) | Hygroscopicity ([3]; listed as Form VI) | XRPD [Pattern] 7 day ([1]; listed as E) | Hygroscopicity ([3]; listed as Form II) |
| --- | --- | --- | --- | --- | --- | --- | --- | --- | --- | --- | --- | --- | --- | --- | --- | --- | --- | --- |
| CC1=C(C)C(=O)C(CC[C@@](C)(O)C(N)=O)=C(C)C1=O [Pattern C, (R)-2-hydroxy-2-methyl-4-(2,4,5-trimethyl-3,6-dioxocyclohexa-1,4-dienyl)butanamide] | Yellow solids | Yellow solids | no change in form | Crystalline [Pattern C] | stability to elevated humidity | 1320 µg/mL (≈ 4.98 mM) | consistent with Pattern C | about 6% | 2% | slightly hygroscopic | No hysteresis | – | – | – | – | – | – | – |
| CC1=C(C)C(=O)C(CC[C@@](C)(O)C(N)=O)=C(C)C1=O [Pattern D, (R)-2-hydroxy-2-methyl-4-(2,4,5-trimethyl-3,6-dioxocyclohexa-1,4-dienyl)butanamide] | Yellow solids | Yellow solids | mixture of Patterns D/B | – | – | – | – | – | – | – | – | Crystalline [Mixture of Patterns D/B] | – | – | – | – | – | – |
| CC1=C(C)C(=O)C(CC[C@@](C)(O)C(N)=O)=C(C)C1=O [Pattern B, (R)-2-hydroxy-2-methyl-4-(2,4,5-trimethyl-3,6-dioxocyclohexa-1,4-dienyl)butanamide] | Yellow solids | Yellow solids | mixture of Patterns A/B | – | – | 1300 µg/mL (≈ 4.9 mM) | consistent with Pattern A | – | – | non-hygroscopic | – | – | Crystalline [Mixture of Patterns A/B] | non-hygroscopic | – | – | – | – |
| CC1=C(C)C(=O)C(CC[C@@](C)(O)C(N)=O)=C(C)C1=O [Pattern F, (R)-2-hydroxy-2-methyl-4-(2,4,5-trimethyl-3,6-dioxocyclohexa-1,4-dienyl)butanamide] | Yellow solids | Yellow solids | converted to Pattern E | – | – | 1360 µg/mL (≈ 5.13 mM) | consistent with Pattern E | – | – | non-hygroscopic | – | – | – | – | Crystalline [Pattern E] | non-hygroscopic | – | – |
| CC1=C(C)C(=O)C(CC[C@@](C)(O)C(N)=O)=C(C)C1=O [Pattern E, (R)-2-hydroxy-2-methyl-4-(2,4,5-trimethyl-3,6-dioxocyclohexa-1,4-dienyl)butanamide] | Yellow solids | Yellow solids | no change in form | – | stability to elevated humidity | 1320 µg/mL (≈ 4.98 mM) | consistent with Pattern E | – | 0.2% | non-hygroscopic | No hysteresis | – | – | – | – | – | Crystalline [Pattern E] | non-hygroscopic |
